{
  "source": "patent US5382582A",
  "about": "“Methotrexate analogs and methods of using same” (priority 1993, dated 1995)",
  "key": {"[1]": {"details": "Rosowsky and Chen, J. Med. Chem., 18, 1308-11 (1974); cited from earlier work"}, "[2]": {"experiment": "Formation of 7-OH-MTX (7-hydroxylation) in rabbit liver homogenate", "details": "as compared with MTX", "procedure": "(§1) For these experiments, freshly isolated liver from a New Zealand white rabbit was homogenized in 400 ml of cold buffer of pH 7.6 consisting of 10 mM Tris-HCl, 25 mM sucrose and 10 mMMgCl2. The homogenate was centrifuged at 1000× g for 20 minutes at 4° C. and the resulting pellet was resuspended in about 14 ml of the same buffer. […] Two ml samples of the homogenate were removed at 10 minute intervals. Samples were boiled 5 minutes to denature proteins, and then centrifuged to pellet cell debris. […] For HPLC analysis, a Perkin-Elmer 410 LC solvent delivery system and a 5-μm IBM ODS column (4.1×250 mm) with a C18 Guard column were employed. The mobile phase consisted of 0.1 M monobasic sodium phosphate and 0.1 M Tris-HCl in 27% methanol at a final pH of 7.6. […] Detector output was recorded and integrated by a Perkin-Elmer LCI 100 integrator."}, "[3]": {"tested_on": "human leukemia cell line K562", "experiment": "Growth inhibition of myelogenous leukemia cells (cell counts, 120 h continuous exposure)", "assay_type": "cell-based", "details": "for IC50: Homo sapiens, K562 Cells, 120 hours continuous exposure", "procedure": "(§2) Two suspensious human leukemia cell lines were employed in this study. The myelogenous leukemia cell line K562 was cultured in RPMI 1640 (JRH Biosciences) containing 10% filtered fetal bovine serum (FBS; Irvine Scientific), and the lymphoblastic leukemia cell line CCRF/CEM was cultured in RPMI 1640 containing 20% FBS, 100 U/ml penicillin (GIBCO Laboratories, Grand Island, NY), and 100 μg/ml streptomycin (GIBCO). Cells were maintained at 37° C. with 5% CO2 in air, and were cultured using standard sterile tissue culture technique.\n(§3) Prior to toxicity studies, cells were maintained 48 hours in the absence of added inhibitor. Logarithmically growing cells were inoculated at 1×10^4 cells/ml in tissue culture grade petri dishes (35×10 mm), and, following a suitable recovery period, were treated with chemical agents. Inhibitor concentrations ranging from 10^-12 to 10^-4 M were added to the cultures except for a control culture, which contained no added drug. Cell counts were performed by hematometer counting during 120 hours of continuous exposure to the drugs. The IC50 value was obtained by interpolation from graphs of percent growth inhibition plotted against drug concentration."}, "[4]": {"experiment": "Half-life in rabbit liver homogenate", "procedure": "as §1, with “employed.” for “employed. The mobile phase consisted of 0.1 M monobasic sodium phosphate and 0.1 M Tris-HCl in 27% methanol at a final pH of 7.6.”"}, "[5]": {"tested_on": "human leukemia cell line CCRF/CEM", "experiment": "Growth inhibition of lymphoblastic leukemia cells (cell counts, 120 h continuous exposure)", "assay_type": "cell-based", "procedure": "as §2, §3"}, "[6]": {"details": "high dose regimen; Barak et al. (1984); cited from earlier work"}, "[7]": {"details": "man and monkeys; Borsi et al. (1990), Jacobs et al. (1976); cited from earlier work"}, "[8]": {"details": "Tomcuf, J. Organic Chem., 26, 3351 (1961); cited from earlier work"}, "[9]": {"experiment": "In vivo pharmacokinetics: 7-OH-MTX formed from drug in rabbit plasma", "design": "species or system New Zealand White rabbit", "details": "i.v., as compared with MTX", "procedure": "A male New Zealand White rabbit was cannulated through the middle ear artery. A single bolus 16.7 mg/kg dose of drug was administered into the ear vein, and 1.0 ml blood samples were withdrawn from the cannulated artery into heparinized tubes at 0, 5, 15, 30, 45, 60, 75 and 90 minutes following drug administration. Plasma was separated from the samples by centrifugation at 1000 rpm, and was kept frozen until analysis.\nHPLC analysis was performed as in Example 5, with the exception that the mobile phase was 0.1 M monobasic sodium phosphate and 0.1 M Tris-HCl in 20% methanol at a final pH of 6.7. p-Aminoacetophenone (10 μg/ml in water) was used as an internal standard.\nPharmacokinetic parameters were determined by the method of residual, a standard pharmacokinetic technique for resolving a curve into its various exponential components.\nThus tmax was calculated according to the formula:\ntmax =2.3 log (ka /kc)/[…]"}},
  "data": [
    {"smiles": "Cc1nc2nc(N)nc(N)c2nc1CN(C)c1ccc(C(=O)N[C@@H](CCC(=O)O)C(=O)O)cc1", "note": "[7-methyl substituted MTX]", "values": [
      {"measurement": "Antifolate antagonism", "setting": "[1]", "result": "impaired antifolate antagonism"}
    ]},
    {"smiles": "[2H]c1nc2nc(N)nc(N)c2nc1CN(C)c1ccc(C(=O)N[C@@H](CCC(=O)O)C(=O)O)cc1", "note": "[7-d-MTX, N-{p-[N-(2,4-diamino-7-deutero-6-pterridinylmethyl)-N-methylamino]benzoyl}-L -glutamic acid]", "values": [
      {"measurement": "Less 7-OH-MTX formed per unit time than from MTX", "setting": "[2]", "result": "about 70%"},
      {"measurement": "IC50", "setting": "[3]", "result": 6, "unit": "nM"},
      {"measurement": "IC50 lower than IC50 of MTX by", "setting": "[3]; K562 and CCRF/CEM cells, as compared with MTX", "result": "15-25%"},
      {"measurement": "Half-life greater than half-life for MTX by", "setting": "[4]; rabbit liver homogenate, as compared with MTX", "result": "about 60%"},
      {"measurement": "IC50", "setting": "[5]", "result": 9.5, "unit": "nM"}
    ]},
    {"smiles": "CN(Cc1nc2c(N)nc(N)nc2nc1O)c1ccc(C(=O)N[C@@H](CCC(=O)O)C(=O)O)cc1", "note": "[7-OH-MTX, 7-hydroxymethotrexate]", "values": [
      {"measurement": "Toxicity", "setting": "[6]", "result": "the source of this toxicity"}
    ]},
    {"smiles": "CN(Cc1cnc2nc(N)nc(N)c2n1)c1ccc(C(=O)N[C@@H](CCC(=O)O)C(=O)O)cc1", "note": "[MTX, N-[4-[[(2,4-diamino-6pteridinyl)methyl]methylamino]benzoyl]-L-glutamicacid, reference compound]", "values": [
      {"measurement": "IC50", "setting": "[3]", "result": 8, "unit": "nM"},
      {"measurement": "Conversion in vivo to 7-OH-MTX", "setting": "[7]", "result": "converted in vivo to 7-hydroxymethotrexate (7-OH-MTX)"},
      {"measurement": "Toxicity", "setting": "[6]", "result": "associated with renal and hepatic toxicity"},
      {"measurement": "Half-Life", "setting": "[4]; rabbit, liver homogenate, pH 7.6", "result": 28.2, "unit": "min"},
      {"measurement": "IC50", "setting": "[5]", "result": 11.3, "unit": "nM"}
    ]},
    {"smiles": "CN(Cc1cnc2nc(N)nc(N)c2n1)c1c(F)cc(C(=O)N[C@@H](CCC(=O)O)C(=O)O)cc1F", "note": "[3', 5'-difluoro MTX]", "values": [
      {"measurement": "Biological activity as compared with MTX", "setting": "[8]", "result": "little or no increase in biological activity as compared with MTX"}
    ]},
    {"smiles": "[2H]c1nc2nc(N)nc(N)c2nc1C([2H])([2H])N(C)c1ccc(C(=O)N[C@@H](CCC(=O)O)C(=O)O)cc1", "note": "(racemic) [7,9,9-d3 -MTX, N-[p-[N-(2,4-diamino-7-deutero-6-pteridinyldideuteromethyl)-N-methylamino]benzoyl]glutamic acid]", "values": [
      {"measurement": "IC50", "setting": "[3]", "result": 40, "unit": "nM"},
      {"measurement": "IC50 compared with IC50 of MTX", "setting": "[3]; K562 and CCRF/CEM cells, D,L-racemate", "result": "greater than the IC50 values obtained for MTX"},
      {"measurement": "Peak level of 7-OH-MTX less than that obtained from MTX by", "setting": "[9]", "result": "about 70%"},
      {"measurement": "Time to achieve 7-OH-MTX peak level as compared to that of MTX", "setting": "[9]", "result": "more than twice as long"},
      {"measurement": "IC50", "setting": "[5]", "result": 48, "unit": "nM"}
    ]}
  ]
}
